Assay [1] deals with human recombinant 5-HT2A receptor (Homo sapiens (Human), UniProt P28223). The experiment in a line: 5-HT2A receptor binding inhibition test ([3H]-Ketanserin). The note with it: Jump-In HEK cell membrane, 25° C. 1.5 hours. The protocol:
Test Example 1: 5-HT2A Receptor Binding Inhibition Test
(§1) (Each Experimental Condition)
Cell membrane: 15 μg of Jump-In HEK cell membrane (expressing human recombinant 5-HT2A receptor) per well
(§2) Assay buffer: Tris-HCl 50 mmol/L (pH 7.4) containing NaCl 120 mmol/L, MgCl2·6H2O 1 mmol/L, KCl 5 mmol/L, 0.1% BSA and CaCl2 2 mmol/L
Radioactive ligand: [^3H]-Ketanserin with a final concentration of around Kd value calculated by the following method
Non-specific ligand: Serotonin HCl with a final concentration of 500 μmol/L
(§3) The Kd value is calculated when the lot of cell membrane is changed. In advance, 0.5 μL of a 1 mmol/L compound for non-specific binding calculation dissolved in DMSO or DMSO is dispensed into a microplate, and the cell membrane is diluted with an Assay buffer. The radioactive ligand solution is serially diluted and the count is confirmed with a liquid scintillator. Assay buffer containing diluted cell membrane is dispensed into a microplate at 50 μL/well. Then, the radioactive ligand solution is dispensed into a microplate at 50 μL/well, and the plate is sealed. It is allowed to stand at room temperature (25° C.) for 1.5 hours. During this period, 50 mmol/L Tris-HCl (pH 7.4) is dispensed into a GF/B UniFilter plate at 50 μL/well and allowed to stand at 4° C. for 1 hour or longer. After that, filtration is performed with Cell harvester (PerkinElmer). The radioactive ligand solution is dispensed into an empty well of the GF/B UniFilter plate at 10 μL/well. After the GF/B UniFilter plate is dried at room temperature, MicroScinti 20 is dispensed into the GF/B UniFilter plate at 50 μL/well to seal the plate. The GF/B UniFilter plate is allowed to stand overnight at room temperature. The radioactivity of [^3H]-Ketanserin bound to the 5-HT2A receptor is measured using Microbeta2 (PerkinElmer) at a measurement time of 1 min/well. The Saturation curve is drawn from the measured value, and the Kd value is calculated from the slope of the Scatchard Plot.
(§4) (Binding Test of the Compound According to the Present Invention)
In advance, 0.5 μL of the compound solution dissolved in DMSO is dispensed into a microplate, and the cell membrane and the hot ligand are diluted with Assay buffer, respectively. Then, the Assay buffer containing the diluted cell membrane is dispensed into a microplate at 50 μL/well. Then, the radioactive ligand solution is dispensed into a microplate at 50 μL/well, and the plate is sealed. Then, it is allowed to stand at room temperature (25° C.) for 1.5 hours. During this period, 50 mmol/L Tris-HCl (pH 7.4) is dispensed into a GF/B UniFilter plate at 50 μL/well and allowed to stand at 4° C. for 1 hour or longer. After that, filtration is performed with Cell harvester (PerkinElmer). After the GF/B UniFilter plate is dried at room temperature, MicroScinti 20 is dispensed into the GF/B UniFilter plate at 50 μL/well to seal the plate. The GF/B UniFilter plate is allowed to stand overnight at room temperature. The radioactivity of [^3H]-Ketanserin bound to the 5-HT2A receptor is measured using Microbeta2 (PerkinElmer) at a measurement time of 1 min/well. The non-specific binding is calculated from the radioactivity of [^3H]-Ketanserin in the presence of 500 μmol/L Serotonin HCl which is the unlabeled ligand, and the total binding is calculated from the radioactivity of [^3H]-Ketanserin in the absence of the compound according to the present invention (Vehicle). Finally, the Ki value is calculated from the dose-response curve.
(§5) (The binding activity of the compound according to the present invention is calculated from the following binding inhibition rate (%).)
(§6) [formula] • a; mean cpm of non-specific binding • b; average cpm of total binding • c; cpm in the presence of the test compound

The target in assay [2] is human recombinant 5-HT2C receptor (Homo sapiens (Human), UniProt P28335). The experiment in a line: 5-HT2C receptor binding inhibition test ([3H]-Mesulergine). The note with it: Jump-In HEK cell membrane, 37° C. 2 hours. The protocol:
Test Example 2: 5-HT2C Receptor Binding Inhibition Test
as §1
Cell membrane: 0.5 μg of Jump-In HEK cell membrane (expressing human recombinant 5-HT2C receptor) per well
as §2
Radioactive ligand: [^3H]-Mesulergine with a final concentration of around Kd value calculated by the following method
Non-specific ligand: Serotonin HCl with a final concentration of […]
as §3, with “37° C.” for “room temperature (25° C.)”, “2” for “1.5”, “[^3H]-Mesulergine” for “[^3H]-Ketanserin”, “5-HT2C” for “5-HT2A”
as §4
In advance, 0.5 μL of the compound solution dissolved in DMSO is dispensed into a microplate, and the cell membrane and the hot ligand are diluted with Assay buffer, respectively. Then, the Assay buffer containing the diluted cell membrane is dispensed into a microplate at 50 μL/well. Then, the radioactive ligand solution is dispensed into a microplate at 50 μL/well, and the plate is sealed. Then, it is allowed to stand at 37° C. for 2 hours. During this period, 50 mmol/L Tris-HCl (pH 7.4) is dispensed into a GF/B UniFilter plate at 50 μL/well and allowed to stand at 4° C. for 1 hour or longer. After that, filtration is performed with Cell harvester (PerkinElmer). After the GF/B UniFilter plate is dried at room temperature, MicroScinti 20 is dispensed into the GF/B UniFilter plate at 50 μL/well, and the plate is sealed. The GF/B UniFilter plate is allowed to stand overnight at room temperature. The radioactivity of [^3H]-Mesulergine bound to the 5-HT2C receptor is measured using Microbeta2 (PerkinElmer) at a measurement time of 1 min/well. The non-specific binding is calculated from the radioactivity of […] in the presence of 500 μmol/L Serotonin HCl which is the unlabeled ligand, and the total binding is calculated from the radioactivity of [^3H]-Mesulergine in the absence of the compound according to the present invention (Vehicle). Finally, the Ki value is calculated from the dose-response curve.
as §5, §6

The mark [3] stands for this setting: read-out: human serotonin 5-HT2A receptor binding activity Ki.
The mark [4] stands for this setting: read-out: human serotonin 5-HT2C receptor binding activity Ki.

SMILES strings stand for the structures. Where two headings read alike, the source gives them in different places.

Sequence of human recombinant 5-HT2C receptor (P28335 33-458): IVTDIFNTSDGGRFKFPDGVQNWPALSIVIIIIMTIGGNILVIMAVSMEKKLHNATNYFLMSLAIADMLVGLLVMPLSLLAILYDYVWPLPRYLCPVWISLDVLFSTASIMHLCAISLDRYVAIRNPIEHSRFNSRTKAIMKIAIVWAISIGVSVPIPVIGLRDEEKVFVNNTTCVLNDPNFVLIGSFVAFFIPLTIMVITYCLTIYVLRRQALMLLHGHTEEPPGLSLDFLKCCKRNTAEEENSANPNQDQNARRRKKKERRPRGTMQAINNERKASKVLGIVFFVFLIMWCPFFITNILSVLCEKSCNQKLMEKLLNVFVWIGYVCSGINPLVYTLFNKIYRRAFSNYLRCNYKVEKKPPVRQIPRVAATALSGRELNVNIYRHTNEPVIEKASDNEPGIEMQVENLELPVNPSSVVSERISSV
Sequence of human recombinant 5-HT2A receptor (P28223 whole entry): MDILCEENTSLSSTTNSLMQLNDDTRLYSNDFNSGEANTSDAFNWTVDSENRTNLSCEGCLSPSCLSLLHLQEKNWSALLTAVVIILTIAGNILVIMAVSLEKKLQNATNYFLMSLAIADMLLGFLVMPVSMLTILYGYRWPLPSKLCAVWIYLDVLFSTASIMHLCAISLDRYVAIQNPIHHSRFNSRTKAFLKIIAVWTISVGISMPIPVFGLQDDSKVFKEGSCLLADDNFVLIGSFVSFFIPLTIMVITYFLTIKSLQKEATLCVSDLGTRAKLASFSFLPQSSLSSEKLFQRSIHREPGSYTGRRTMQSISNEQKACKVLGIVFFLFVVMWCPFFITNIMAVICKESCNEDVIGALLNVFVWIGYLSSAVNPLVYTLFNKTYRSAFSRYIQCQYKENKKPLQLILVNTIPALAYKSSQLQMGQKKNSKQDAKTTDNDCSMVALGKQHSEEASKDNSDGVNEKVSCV

`CCCOc1ccc(CC2=NOC3(CCN(C)CC34CC4)N2Cc2ccc(F)cn2)cc1` (centres unmarked) [Compound I-026]: the Ki in assay [1] (read-out: h-5-HT2A Ki) and in assay [2] (read-out: h-5-HT2C Ki) was under 0.01 µM throughout.
Consider `CCCc1ccc(CN(Cc2coc(C)n2)C2=NOC3(CCN(C)CC3)N2)cc1F` [Compound I-110], for which the Ki in assay [1] (read-out: h-5-HT2A Ki) and in assay [2] (read-out: h-5-HT2C Ki) was under 0.01 µM in each case.
In the case of `Cc1cc(CN(Cc2ccc(OCC(C)C)cc2)C2=NOC3(CCN(C)CC3)N2)co1` [Compound I-070], the Ki in assay [1] (read-out: h-5-HT2A Ki) and in assay [2] (read-out: h-5-HT2C Ki) was under 0.01 µM throughout.
Take `CC(C)COc1ccc(CN(Cc2ccn(C)n2)C2=NOC3(CCN(C)CC3)N2)cc1` [Compound I-009]: the Ki in assay [1] (read-out: h-5-HT2A Ki) and in assay [2] (read-out: h-5-HT2C Ki) was under 0.01 µM throughout.
In the case of `CC(C)COc1ccc(CN(Cc2ccc(F)cn2)C2=NOC3(CCN(C)CC3)N2)cc1` [Compound I-007], the values for the Ki in assay [1] (read-out: h-5-HT2A Ki) and in assay [2] (read-out: h-5-HT2C Ki) were under 0.01 µM and 0.01 to 0.1 µM, respectively.
`Cc1nc(CN(Cc2cnc3ccccc3c2)C2=NOC3(CCN(C)CC3)N2)co1` [Compound I-095]: the Ki in assay [1] (read-out: h-5-HT2A Ki) lay within 0.01 to 0.1 µM; in assay [2] (read-out: h-5-HT2C Ki) it was 0.1 to 0.5 µM.
With `COc1ccc(CN(Cc2coc(C)n2)C2=NOC3(CCN(C)CC3)N2)cn1` [Compound I-120], the Ki in assay [1] (read-out: h-5-HT2A Ki) and in assay [2] (read-out: h-5-HT2C Ki) was 0.01 to 0.1 µM throughout.
`CCCCOc1ccc(CN(Cc2cnn(C)n2)C2=NOC3(CCN(C)CC3)N2)c(F)c1` [Compound I-112]: the Ki in assay [1] (read-out: h-5-HT2A Ki) and in assay [2] (read-out: h-5-HT2C Ki) was under 0.01 µM each time.
Regarding `COc1ccc(CN(Cc2coc(C)n2)C2=NOC3(CCN(C)CC3)N2)nc1` [Compound I-121], the Ki in assay [1] (read-out: h-5-HT2A Ki) and in assay [2] (read-out: h-5-HT2C Ki) was 0.01 to 0.1 µM in each case.
Consider `COc1ccc(CC2=NOC3(CCN(C)CC34CC4)N2Cc2cc(C)n(C)n2)cc1` (racemic) [Compound I-034], for which the inhibitory constant (Ki) in assay [1] (read-out: h-5-HT2A Ki) was under 0.01 µM; in assay [2] (read-out: h-5-HT2C Ki), 0.01 to 0.1 µM.
Turning to `CCOCc1ccc(CN(Cc2coc(C)n2)C2=NOC3(CCN(C)CC3)N2)cc1` [Compound I-124], the Ki in assay [1] (read-out: h-5-HT2A Ki) and in assay [2] (read-out: h-5-HT2C Ki) was 0.01 to 0.1 µM throughout.
`CC(C)CNc1ccc(CN(Cc2ccn(C)n2)C2=NOC3(CCN(C)CC3)N2)cc1` [Compound I-023]: the Ki in assay [1] (read-out: h-5-HT2A Ki) and in assay [2] (read-out: h-5-HT2C Ki) was 0.01 to 0.1 µM in each case.
Turning to `CCCOc1ccc(CC2=NOC3(CCN(C)CC34CC4)N2Cc2ccn(C)n2)cc1` (centres unmarked) [Compound I-027], the Ki in assay [1] (setting [3]) came to 0.00189 µM; in assay [2] (setting [4]) it was 0.00221 µM.
For the compound `CC(C)COc1ccc(CN(C2=NOC3(CCN(C)CC3)N2)C(C)c2ccc(F)cc2)cc1` (single isomer, unassigned) [Compound I-074], the inhibition constant (Ki) in assay [1] (read-out: h-5-HT2A Ki) and in assay [2] (read-out: h-5-HT2C Ki) was 0.1 to 0.5 µM each time.
Turning to `Cc1nc(CN(Cc2ccc(OCC(C)C)cc2)C2=NC(=O)C3(CCN(C)CC3)N2)cs1` [Compound I-057], the values for the Ki in assay [1] (setting [3]) and in assay [2] (setting [4]) were 0.0052 µM and 0.00219 µM, respectively.
On to `CCCOc1ccc(CC2=NOC3(CCN(C)CC34CC4)N2Cc2ccn(C)n2)cc1` (single isomer, unassigned) [Compound I-044], for which the Ki in assay [1] (read-out: h-5-HT2A Ki) and in assay [2] (read-out: h-5-HT2C Ki) was under 0.01 µM in each case.
Take `Cc1nc(CN(Cc2ccc(OCC(C)C)cc2)C2=NO[C@@]3(CCNC[C@H]3F)N2)co1` (racemic) [Compound I-085]: the inhibitory constant (Ki) in assay [1] (read-out: h-5-HT2A Ki) and in assay [2] (read-out: h-5-HT2C Ki) was under 0.01 µM in each case.
Take `CCCOc1ccc(CC2=NOC3(CCN(C)CC34CC4)N2Cc2ccn(C)n2)cc1` (single isomer, unassigned) [Compound I-045]: the Ki in assay [1] (read-out: h-5-HT2A Ki) lay in the range of 0.01 to 0.1 µM; in assay [2] (read-out: h-5-HT2C Ki), 0.1 to 0.5 µM.
For `Cc1cnc(CN(Cc2ccc(OCC(C)C)cc2)C2=NOC3(CCN(C)CC3)N2)o1` [Compound I-032], in that order: 0.01 to 0.1 µM and 0.01 to 0.1 µM.
Consider `Cc1ccc(CN(Cc2ccc(OCC(C)C)cc2)C2=NOC3(CCNCC3)N2)cn1` [Compound I-078], for which the Ki in assay [1] (read-out: h-5-HT2A Ki) is under 0.01 µM; in assay [2] (read-out: h-5-HT2C Ki), 0.1 to 0.5 µM.
Take `CCCc1ccc(CN(Cc2coc(C)n2)C2=NOC3(CCN(C)CC3)N2)c(F)c1` [Compound I-109]: the Ki in assay [1] (read-out: h-5-HT2A Ki) and in assay [2] (read-out: h-5-HT2C Ki) was under 0.01 µM each time.
Consider `CC(C)COc1ccc(CN(Cc2ccn(C)n2)C2=NC(=O)C3(CCN(C)CC34CC4)N2)cc1` (racemic) [Compound I-043], for which the inhibition constant (Ki) in assay [1] (read-out: h-5-HT2A Ki) and in assay [2] (read-out: h-5-HT2C Ki) was 0.01 to 0.1 µM throughout.
Consider `Cc1nc(CN(Cc2ccc(OCC(F)(F)F)cc2)C2=NOC3(CCN(C)CC3)N2)co1` [Compound I-047], for which the inhibitory constant (Ki) in assay [1] (read-out: h-5-HT2A Ki) and in assay [2] (read-out: h-5-HT2C Ki) was under 0.01 µM in each case.
For the compound `CC(C)COc1ccc(CN(Cc2ccc(F)cn2)C2=NC(=O)C3(CCN(C)CC3)N2)cc1` [Compound I-030], the Ki in assay [1] (read-out: h-5-HT2A Ki) was under 0.01 µM; in assay [2] (read-out: h-5-HT2C Ki), 0.01 to 0.1 µM.
For the compound `Cc1nc(CN(Cc2ccsc2)C2=NOC3(CCN(C)CC3)N2)co1` [Compound I-073], the Ki was 0.01 to 0.1 µM in assay [1] (read-out: h-5-HT2A Ki) and under 0.01 µM in assay [2] (read-out: h-5-HT2C Ki).
As for `CC(C)COc1ccc(CN(Cc2ccc(F)cc2)C2=NC(=O)C3(CCN(C)CC3)N2)cc1` [Compound I-021], the inhibitory constant (Ki) in assay [1] (read-out: h-5-HT2A Ki) is under 0.01 µM; in assay [2] (read-out: h-5-HT2C Ki), 0.01 to 0.1 µM.
Turning to `Cc1ccc2cc(CN(Cc3coc(C)n3)C3=NOC4(CCN(C)CC4)N3)sc2c1` [Compound I-101], the inhibitory constant (Ki) in assay [1] (read-out: h-5-HT2A Ki) and in assay [2] (read-out: h-5-HT2C Ki) was under 0.01 µM each time.
On to `CC(C)COc1ccc(CN=C2NC(=O)CC3(CCN(C)CC3)N2Cc2ccc(F)cc2)cc1` [Compound I-005], for which the results for the Ki in assay [1] (setting [3]) and in assay [2] (setting [4]) were 0.0853 µM and 0.219 µM, respectively.

The record behind these values is patent US20250026765A1, “SPIROHETEROCYCLE DERIVATIVE HAVING SEROTONIN RECEPTOR BINDING ACTIVITY” (Shionogi & Co., Ltd., priority 2021, published 2025).
